One assay in a line: Displacement of [3H]GGpp from GGTase1 expressed in Sf9 cells.
Details: not given
On to `Cc1ccc(C(CC(N)=O)NC(=O)CCNCc2cc(-c3cccnc3)nn2-c2ccc(Cl)c(Cl)c2)cc1` (stereo not given), for which the pIC50 came out at 6.35.

`CSCCCc1c(-c2cccnc2)nn(-c2ccc(Cl)c(Cl)c2)c1OCCCC(=O)NC(CC(N)=O)c1ccc(C)cc1` (stereo not given) came in with a pIC50 of 7.55.

The compound `Cc1ccc(C(=O)N/C(=C/c2ccc(-c3ccc(Cl)c(Cl)c3)o2)C(=O)NCc2ccccc2)cc1` yielded a pIC50 of 3.84.

In turn, `Cc1ccc(C(CC(N)=O)NC(=O)CCCN(CCN2CCOCC2)c2cc(-c3cccnc3)nn2-c2ccc(Cl)c(Cl)c2)cc1` (stereo not given) had a pIC50 of 5.09.

Compound `Cc1ccc(C(CC(N)=O)NC(=O)c2ccc(-c3cc(-c4cccnc4)nn3-c3ccc(Cl)c(Cl)c3)cc2)cc1` (stereo not given) yielded a negative logarithm of the IC50 (pIC50) of 5.82.

For `Cc1ccc(CCN(CC(N)=O)C(=O)CCCOc2cc(-c3cccnc3)nn2-c2ccc(Cl)c(Cl)c2)cc1`, the negative logarithm of the IC50 (pIC50) came out at 5.82.

Consider `NC(=O)CC(NC(=O)c1ccc(-c2cc(-c3cccnc3)nn2-c2ccc(Cl)c(Cl)c2)s1)OCc1ccccc1` (stereo not given), for which the negative-log IC50 (pIC50) stood at 5.57.

Regarding `Cc1ccc(-c2nn(-c3ccccc3)cc2/C=N/NC(=O)C(=O)Nc2cc(Cl)ccc2Cl)cc1`, the pIC50 is 4.43.

`Cc1ccc(C(CC(N)=O)NC(=O)CC[C@H](C)Nc2cc(-c3cccnc3)nn2-c2ccc(Cl)c(Cl)c2)cc1` (stereo not given in full) returned a negative-log IC50 (pIC50) of 6.23.

Compound `COc1ccc(OCc2nnc(SCC(=O)Nc3ccc(C(N)=O)cc3)n2CCc2ccccc2)cc1` had a negative logarithm of the IC50 (pIC50) of 5.56.

`CC(C)c1ccc(N(CC(=O)NCc2ccccc2)C(=O)Cn2nnc(-c3ccc(Cl)cc3)n2)cc1`: the pIC50 was determined as 4.19.

With `Cc1ccc(C(CC(N)=O)NC(=O)[C@H]2C[C@H](c3cc(-c4cccnc4)nn3-c3ccc(Cl)c(Cl)c3)C2(C)C)cc1` (stereo not given in full), the pIC50 was 5.94.

As for `Cc1ccc(C(CC(N)=O)NC(=O)CC(=O)COc2cc(-c3cccnc3)nn2-c2ccc(Cl)c(Cl)c2)cc1` (stereo not given), the negative-log IC50 (pIC50) amounted to 4.86.

`Cc1ccc(C(NC(=O)c2ccc(-c3cc(-c4cccnc4)nn3-c3ccc(Cl)c(Cl)c3)s2)C(O)C(N)=O)cc1` (stereo not given) gave a pIC50 of 5.08.

The compound `Cc1ccc(C(CC(N)=O)NC(=O)CCCOc2c(CCCO)c(-c3cccnc3)nn2-c2ccc(Cl)c(Cl)c2)cc1` (stereo not given) gave a negative-log IC50 (pIC50) of 7.17.

`Cc1ccc(C(=O)N/C(=C\c2ccc(-c3ccc(Cl)c(Cl)c3)o2)C(=O)NCc2ccccc2)cc1` yielded a negative logarithm of the IC50 (pIC50) of 5.56.

For `NC(=O)CN(CC1CCCCC1)C(=O)CCCOc1cc(-c2cccnc2)nn1-c1ccc(Cl)c(Cl)c1`, the pIC50 is on record as 5.84.

The compound `Cc1ccc(C(CC(N)=O)NC(=O)CCCCOc2cc(-c3cccnc3)nn2-c2ccc(Cl)c(Cl)c2)cc1` (stereo not given) showed a pIC50 of 5.53.

In the case of `Cc1ccc([C@@H](CC(N)=O)NC(=O)c2ccc(-c3cc(-c4cccnc4)nn3-c3ccc(Cl)c(Cl)c3)cc2)cc1`, the pIC50 is 3.84.

Take `Cc1ccc(CN(CC(N)=O)C(=O)CCCCc2cc(-c3cccnc3)nn2-c2ccc(Cl)c(Cl)c2)cc1`: the pIC50 is recorded as 4.53.

The compound `Cc1ccc(C(CO)NC(=O)c2ccc(-c3cc(-c4cccnc4)nn3-c3ccc(Cl)c(Cl)c3)s2)cc1` (stereo not given) returned a negative logarithm of the IC50 (pIC50) of 5.11.

The compound `O=C(O)C[C@H](Cc1c[nH]c2ccccc12)NC(=O)Cn1c(=O)[nH]c2ccccc2c1=O` returned an IC50 of over 100 µM.

Consider `NC(=O)CC(NC(=O)CCCNc1cc(-c2cccnc2)nn1-c1ccc(Cl)c(Cl)c1)c1cccnc1` (stereo not given), for which the pIC50 is listed as 6.32.

The compound `NC(=O)CC(NC(=O)CCCOc1cc(-c2cccnc2)nn1-c1ccc(Cl)c(Cl)c1)c1ccc(-c2ccccc2)cc1` (stereo not given) gave a pIC50 of 6.21.

The compound `Cc1ccc(C(CC(N)=O)NC(=O)C[C@H](O)COc2cc(-c3cccnc3)nn2-c2ccc(Cl)c(Cl)c2)cc1` (stereo not given in full) came in with a negative logarithm of the IC50 (pIC50) of 5.79.

Compound `Cc1ccc(C(CC(N)=O)NC(=O)COc2cc(-c3cccnc3)nn2-c2ccc(Cl)c(Cl)c2)cc1` (stereo not given) displayed a pIC50 of 4.43.

The compound `COc1ccccc1-c1nnc(SCC(=O)Nc2ccc(C(N)=O)cc2)n1CCc1ccccc1` returned a negative-log IC50 (pIC50) of 5.56.

For `CCCOc1ccc(-c2nn(-c3ccccc3)cc2/C=N/NC(=O)CNC(=O)c2cccc(Cl)c2)cc1`, the negative logarithm of the IC50 (pIC50) is given as 4.02.

Turning to `Cc1ccc(C(CC(N)=O)NC(=O)C2CCCN(Cc3cc(-c4cccnc4)nn3-c3ccc(Cl)c(Cl)c3)C2)cc1` (stereo not given), the pIC50 is 4.3.

Compound `Cc1ccc(C(CC(N)=O)NC(=O)CC(=O)CNc2cc(-c3cccnc3)nn2-c2ccc(Cl)c(Cl)c2)cc1` (stereo not given) came in with a negative-log IC50 (pIC50) of 5.23.

Turning to `CCN(CCCC(=O)NC(CC(N)=O)c1ccc(C)cc1)c1cc(-c2cccnc2)nn1-c1ccc(Cl)c(Cl)c1` (stereo not given), the negative-log IC50 (pIC50) is reported as 5.7.

For `CCCn1c(COc2ccc(C(C)Cc3ccccc3)cc2)nnc1SCC(=O)Nc1ccc(C(N)=O)cc1` (stereo not given), the negative-log IC50 (pIC50) is listed as 4.19.

On to `CCCC(C(=O)NCc1ccccc1)N(Cc1ccccc1Cl)C(=O)Cn1nnc(-c2ccc(Cl)cc2)n1` (stereo not given), for which the pIC50 was determined as 4.43.

As to `O=C(Cn1c(=O)n(Cc2c[nH]cn2)c(=O)c2ccccc21)N[C@@H](Cc1ccccc1)C(=O)O`, the pIC50 is given as 5.77.

`Cc1ccc(C(CC(N)=O)NC(=O)CC(=O)Nc2cc(-c3cccnc3)nn2-c2ccc(Cl)c(Cl)c2)cc1` (stereo not given) had a pIC50 of 5.58.

The compound `NC(=O)CC(NC(=O)c1ccc(-c2cc(-c3cccnc3)nn2-c2ccc(Cl)c(Cl)c2)cc1)OCc1ccccc1` (stereo not given) displayed a pIC50 of 5.63. The pIC50 values of the last two compounds are within 0.2 log units of each other.

`COCCN(CCC(=O)NC(CC(N)=O)c1ccc(C)cc1)Cc1cc(-c2cccnc2)nn1-c1ccc(Cl)c(Cl)c1` (stereo not given): the negative logarithm of the IC50 (pIC50) is 7.

As to `Cc1ccc(C(CC(N)=O)NC(=O)c2ccc(-c3cc(-c4cccnc4)nn3CCc3ccccc3)s2)cc1` (stereo not given), the pIC50 was determined as 4.02.

For the compound `CCCC[C@H](NC(=O)c1ccc(NCNCCCCS)cc1-c1ccccc1)C(=O)O`, the pIC50 was found to be 7.14.

`CCN(C(=O)CCCOc1cc(-c2cccnc2)nn1-c1ccc(Cl)c(Cl)c1)C(CC(N)=O)c1ccc(C)cc1` (stereo not given): the pIC50 came out at 6.27.

The compound `Cc1ccc(C(NC(N)=O)NC(=O)CCCOc2cc(-c3cccnc3)nn2-c2ccc(Cl)c(Cl)c2)cc1` (stereo not given) showed a negative logarithm of the IC50 (pIC50) of 5.4.

The compound `Cc1ccc(C(CC(=O)O)NC(=O)c2ccc(-c3cc(-c4cccnc4)nn3-c3ccc(Cl)c(Cl)c3)s2)cc1` (stereo not given) yielded a negative-log IC50 (pIC50) of 5.73.

Compound `Cc1ccc([C@@H](CC(N)=O)NC(=O)c2ccc(-c3cc(-c4cccnc4)nn3-c3ccc(Cl)c(Cl)c3)s2)cc1` came in with a pIC50 of 4.68.

`Cc1ccc(C(NC(=O)CCCOc2cc(-c3cccnc3)nn2-c2ccc(Cl)c(Cl)c2)C(=N)N)cc1` (stereo not given) came in with a negative-log IC50 (pIC50) of 5.97.

As for `Cc1ccc(C(CC(N)=O)NC(=O)c2ccc(-c3cc(-c4cccnc4)nn3-c3ccc(Cl)c(Cl)c3)s2)cc1` (stereo not given), the negative logarithm of the IC50 (pIC50) worked out at 4.35.

Compound `Cc1ccc(-c2cc(NCNCCCCS)ccc2C(=O)N[C@@H](CCC(C)C)C(=O)O)cc1` gave a negative logarithm of the IC50 (pIC50) of 6.68.

`O=C(O)CNC(=O)[C@H](Cc1c[nH]c2ccccc12)NC(=O)Cn1c(=O)[nH]c2ccccc2c1=O` registered a concentration for half-maximal inhibition (IC50) of over 100 µM.

Staying with this assay, now noted: read-out: IC50.
For `Cc1ccc(C(=O)N/C(=C/c2ccc(-c3ccc(Cl)c(Cl)c3)o2)C(=O)NCc2ccccc2)cc1`, the IC50 came out at 8 µM.

In the case of `CC[C@@H](C(=O)NCc1ccccc1)N(Cc1ccccc1Cl)C(=O)Cn1nnc(-c2ccc(C)cc2)n1`, the half-maximal inhibitory concentration (IC50) was determined as 35 µM.

For the compound `CCc1ccc(OCc2nnc(SCC(=O)Nc3ccc(C(N)=O)cc3)n2C(C)c2ccccc2)cc1` (stereo not given), the IC50 came to 43 µM.

The values above are taken from ChEMBL document CHEMBL1137785, “Discovery of geranylgeranyltransferase-I inhibitors with novel scaffolds by the means of quantitative structure-activity relationship modeling, virtual screening, and experimental validation” (J Med Chem, 2009).
